The results in this text go back to patent publication US9902716B2, “Fluorinated benzofuranyl-pyrimidine derivatives containing a sulfone group” (Bayer Pharma Aktiengesellschaft, priority 2014, dated 2018).

One assay has as its system HeLa cells. Put plainly: Proliferation assay HeLa (Method 3, crystal violet). It counts as cell-based. To be noted: Homo sapiens, 96 h, 4 days incubation, read-out: Inhibition of HeLa cell proliferation IC50. How it is done: (§1) Cultivated tumour cells (HeLa, human cervical tumour cells, ATCC CCL-2; NCI-H460, human non-small cell lung carcinoma cells, ATCC HTB-177; A2780, human ovarian carcinoma cells, ECACC #93112519; DU 145, hormone-independent human prostate carcinoma cells, ATCC HTB-81; HeLa-MaTu-ADR, multidrug-resistant human cervical carcinoma cells, EPO-GmbH Berlin; Caco-2, human colorectal carcinoma cells, ATCC HTB-37; B16F10, mouse melanoma cells, ATCC CRL-6475) were plated at a density of 5,000 cells/well (DU145, HeLa-MaTu-ADR), 3,000 cells/well (NCI-H460, HeLa), 2,500 cells/well (A2780), 1,500 cells/well (Caco-2), or 1,000 cells/well (B16F10) in a 96-well multititer plate in 200 μL of their respective growth medium supplemented 10% fetal calf serum. After 24 hours, the cells of one plate (zero-point plate) were stained with crystal violet (see below), while the medium of the other plates was replaced by fresh culture medium (200 μl), to which the test substances were added in various concentrations (0 μM, as well as in the range of 0.001-10 μM; the final concentration of the solvent dimethyl sulfoxide was 0.5%). The cells were incubated for 4 days in the presence of test substances. Cell proliferation was determined by staining the cells with crystal violet: the cells were fixed by adding 20 μl/measuring point of an 11% glutaric aldehyde solution for 15 minutes at room temperature. After three washing cycles of the fixed cells with water, the plates were dried at room temperature. The cells were stained by adding 100 μl/measuring point of a 0.1% crystal violet solution (pH 3.0). After three washing cycles of the stained cells with water, the plates were dried at room temperature. The dye was dissolved by adding 100 μl/measuring point of a 10% acetic acid solution. The extinction was determined by photometry at a wavelength of 595 nm. The change of cell number, in percent, was calculated by normalization of the measured values to the extinction values of the zero-point plate (=0%) and the extinction of the untreated (0 μm) cells (=100%). The IC50 values (inhibitory concentration at 50% of maximal effect) were determined by means of a 4 parameter fit.

The target of a further assay is T1, CDK9/CycT1 (Homo sapiens, UniProt P50750).
T1 construct: Recombinant full-length His-tagged human CDK9 and CycT1; His; purchased Invitrogen PV4131; host or cells: insect cells
Put plainly: CDK9/CycT1 kinase assay (Method 1a, TR-FRET). The class given is biochemical. The following applies: 10 μM ATP; for IC50: Method 1a; for Selectivity CDK9 over CDK2: IC50 (CDK2)/IC50 (CDK9): Methods 1a and 2a. From the text: 1a. CDK9/CycT1 Kinase Assay:
CDK9/CycT1-inhibitory activity of compounds of the present invention was quantified employing the CDK9/CycT1 TR-FRET assay as described in the following paragraphs:
Recombinant full-length His-tagged human CDK9 and CycT1, expressed in insect cells and purified by Ni-NTA affinity chromatography, were purchased from Invitrogen (Cat. No PV4131). As substrate for the kinase reaction biotinylated peptide biotin-Ttds-YISPLKSPYKISEG (C-terminus in amid form) was used which can be purchased e.g. form the company JERINI Peptide Technologies (Berlin, Germany). For the assay 50 nl of a 100 fold concentrated solution of the test compound in DMSO was pipetted into a black low volume 384 well microtiter plate (Greiner Bio-One, Frickenhausen, Germany), 2 μl of a solution of CDK9/CycT1 in aqueous assay buffer [50 mM Tris/HCl pH 8.0, 10 mM MgCl2, 1.0 mM dithiothreitol, 0.1 mM sodium ortho-vanadate, 0.01% (v/v) Nonidet-P40 (Sigma)] were added and the mixture was incubated for 15 min at 22° C. to allow pre-binding of the test compounds to the enzyme before the start of the kinase reaction. Then the kinase reaction was started by the addition of 3 μl of a solution of adenosine-tri-phosphate (ATP, 16.7 μM=> final conc. in the 5 μl assay volume is 10 μM) and substrate (1.67 μM=> final conc. in the 5 μl assay volume is 1 μM) in assay buffer and the resulting mixture was incubated for a reaction time of 25 min at 22° C. The concentration of CDK9/CycT1 was adjusted depending of the activity of the enzyme lot and was chosen appropriate to have the assay in the linear range, typical concentrations were in the range of 1 μg/mL. The reaction was stopped by the addition of 5 μl of a solution of TR-FRET detection reagents (0.2 μM streptavidine-XL665 [Cisbio Bioassays, Codolet, France] and 1 nM anti-RB(pSer807/pSer811)-antibody from BD Pharmingen [#558389] and 1.2 nM LANCE EU-W1024 labeled anti-mouse IgG antibody [Perkin-Elmer, product no. AD0077]) in an aqueous EDTA-solution (100 mM EDTA, 0.2% (w/v) bovine serum albumin in 100 mM HEPES/NaOH pH 7.0).
The resulting mixture was incubated 1 h at 22° C. to allow the formation of complex between the phosphorylated biotinylated peptide and the detection reagents. Subsequently the amount of phosphorylated substrate was evaluated by measurement of the resonance energy transfer from the Euchelate to the streptavidine-XL. Therefore, the fluorescence emissions at 620 nm and 665 nm after excitation at 350 nm was measured in a HTRF reader, e.g. a Rubystar (BMG Labtechnologies, Offenburg, Germany) or a Viewlux (Perkin-Elmer). The ratio of the emissions at 665 nm and at […] was taken as the measure for the amount of phosphorylated substrate. The data were normalised (enzyme reaction without inhibitor=0% inhibition, all other assay components but no enzyme=100% inhibition).
On the technique in general: TR-FRET usually uses a lanthanide donor and a delayed reading to cut background.

The subject of another assay is NCI-H460 cells. Briefly: Proliferation assay NCI-H460 (Method 3, crystal violet). The class given is cell-based. To be noted: Homo sapiens, 96 h; NCI-H460, 4 days incubation; read-out: Inhibition of NCI-H460 cell proliferation IC50. How it is done:
as §1

The test system of another assay is Caco-2 cells. Briefly: Proliferation assay Caco-2 (Method 3, crystal violet). The class given is cell-based. The following applies: Homo sapiens, 96 h; Caco-2, 4 days incubation; read-out: Inhibition of Caco-2 cell proliferation IC50. Here is the method:
as §1, with “The IC50 values (inhibitory concentration at 50% of maximal effect) were determined by means of a 4 parameter fit.” left out

A further assay concerns MOLM-13 cells. Put plainly: Proliferation assay MOLM-13 (Method 3, Cell Titre-Glo). It counts as cell-based. To be noted: Homo sapiens; MOLM-13, 72-hour exposure; read-out: Inhibition of MOLM-13 cell proliferation IC50. How it is done:
Non-adherent MOLM-13 human acute myeloid leukemia cells (DSMZ ACC 554) were seeded at a density of 5,000 cells/well in a 96-well multititer plate in 100 μL of growth medium supplemented 10% fetal calf serum. After 24 hours, cell viability of one plate (zero-point plate) was determined with the Cell Titre-Glo Luminescent Cell Viability Assay (Promega), while 50 μL of test compound containing medium was added to the wells of the other plates (final concentrations in the range of 0.001-10 μM and DMSO controls; the final concentration of the solvent dimethyl sulfoxide was 0.5%). Cell viability was assessed after 72-hour exposure with the Cell Titre-Glo Luminescent Cell Viability Assay (Promega). IC50 values (inhibitory concentration at 50% of maximal effect) were determined by means of a 4 parameter fit on measurement data which were normalized to vehicle (DMSO) treated cells (=100%) and measurement readings taken immediately before compound exposure (=0%).

T1 sequence (P50750 whole entry): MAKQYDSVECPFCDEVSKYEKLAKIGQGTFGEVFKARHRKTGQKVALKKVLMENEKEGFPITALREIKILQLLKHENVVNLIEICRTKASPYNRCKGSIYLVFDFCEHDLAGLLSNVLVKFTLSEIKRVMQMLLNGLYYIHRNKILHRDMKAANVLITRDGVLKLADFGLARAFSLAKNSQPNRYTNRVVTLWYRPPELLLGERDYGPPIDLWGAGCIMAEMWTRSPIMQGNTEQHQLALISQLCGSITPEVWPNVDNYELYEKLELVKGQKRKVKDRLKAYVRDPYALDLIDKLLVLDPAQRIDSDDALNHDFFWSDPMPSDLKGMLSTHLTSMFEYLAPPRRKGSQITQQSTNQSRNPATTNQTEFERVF
T1 sequence (O60563 whole entry partner): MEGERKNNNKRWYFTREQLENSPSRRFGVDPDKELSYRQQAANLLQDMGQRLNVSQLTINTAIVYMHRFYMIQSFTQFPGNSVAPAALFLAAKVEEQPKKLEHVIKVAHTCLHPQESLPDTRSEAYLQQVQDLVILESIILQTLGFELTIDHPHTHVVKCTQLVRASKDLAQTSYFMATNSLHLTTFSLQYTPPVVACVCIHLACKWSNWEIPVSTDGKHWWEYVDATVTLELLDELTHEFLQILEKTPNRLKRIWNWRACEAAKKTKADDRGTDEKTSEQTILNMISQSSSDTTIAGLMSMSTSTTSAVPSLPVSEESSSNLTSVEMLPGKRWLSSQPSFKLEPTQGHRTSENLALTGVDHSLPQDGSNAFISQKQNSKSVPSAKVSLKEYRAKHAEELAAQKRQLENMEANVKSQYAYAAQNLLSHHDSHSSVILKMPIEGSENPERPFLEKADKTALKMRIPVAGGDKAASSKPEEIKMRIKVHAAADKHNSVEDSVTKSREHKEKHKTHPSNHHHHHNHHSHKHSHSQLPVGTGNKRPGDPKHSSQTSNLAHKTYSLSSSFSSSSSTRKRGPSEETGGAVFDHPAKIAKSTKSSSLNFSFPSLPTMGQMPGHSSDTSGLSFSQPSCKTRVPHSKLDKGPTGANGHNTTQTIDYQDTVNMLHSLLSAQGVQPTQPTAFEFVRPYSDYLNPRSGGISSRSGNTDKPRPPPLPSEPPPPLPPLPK

For `Cc1cc(CS(C)(=O)=O)cc(Nc2ncc(F)c(-c3ccc(F)c4ccoc34)n2)c1` [Example 4, 5-Fluoro-4-(4-fluoro-1-benzofuran-7-yl)-N-{3-methyl-5-[(methylsulfonyl)methyl]-phenyl}pyrimidin-2-amine], the IC50 in the assay with HeLa cells amounted to 100 nM; against CDK9/CycT1 it was 2 nM; in the assay on NCI-H460 cells, 146 nM; with Caco-2 cells it was 313 nM; in the assay on MOLM-13 cells, 46 nM. Moreover, at CDK9/CycT1, the “Selectivity CDK9 over CDK2: IC50 (CDK2)/IC50 (CDK9)” value (“Selectivity CDK9 over CDK2: IC50” below) worked out at 29.

Consider `CS(=O)(=O)Cc1cc(F)cc(Nc2ncc(F)c(-c3ccc(F)c4ccoc34)n2)c1` [Example 3], for which the IC50 worked out at 100 nM with HeLa cells, 2 nM at CDK9/CycT1, 230 nM in the assay with NCI-H460 cells and 392 nM in the assay with Caco-2 cells.

`CCS(=O)(=O)Cc1cccc(Nc2ncc(F)c(-c3ccc(F)c4ccoc34)n2)c1` [Example 2, N-{3-[(Ethylsulfonyl)methyl]phenyl}-5-fluoro-4-(4-fluoro-1-benzofuran-7-yl)pyrimidin-2-amine]: the results for the IC50 in the assay on HeLa cells, against CDK9/CycT1 and in the assay with NCI-H460 cells were 335 nM, 3 nM and 114 nM, respectively. The “Selectivity CDK9 over CDK2: IC50” value on CDK9/CycT1 is listed as 37.

On to `CS(=O)(=O)Cc1cccc(Nc2ncc(F)c(-c3ccc(F)c4ccoc34)n2)c1` [Example 1, 5-Fluoro-4-(4-fluoro-1-benzofuran-7-yl)-N-{3-[(methylsulfonyl)methyl]-phenyl}pyrimidin-2-amine], for which the IC50 in the assay on HeLa cells is 270 nM; at CDK9/CycT1, 4 nM; with NCI-H460 cells, 330 nM; in the assay on Caco-2 cells, 300 nM; with MOLM-13 cells, 170 nM. Besides, the “Selectivity CDK9 over CDK2: IC50” value at CDK9/CycT1 is on record as 44.
